Reference: patent US8211890B2, “5-amino-2-(1-hydroxy-ethyl)-tetrahydropyran derivatives” (Actelion Pharmaceuticals, priority 2008, dated 2012)
≈ marks a conversion by molar mass, not a printed value.

Tests used:
[1] = tested on: S. aureus A798; assay: Bacterial growth minimal inhibitory concentrations (microdilution, cation-adjusted Mueller-Hinton Broth); format: cell-based; conditions: for MIC: Staphylococcus aureus
Experimental: Minimal inhibitory concentrations (MICs; mg/l) were determined in cation-adjusted Mueller-Hinton Broth by a microdilution method following the description given in “Methods for Dilution Antimicrobial Susceptibility Tests for Bacteria that Grow Aerobically”, Approved standard, 7th ed., Clinical and Laboratory Standards Institute (CLSI) Document M7-A7, Wayne, Pa., USA, 2006.

[2] = target: hERG K+ channel (Homo sapiens, UniProt Q12809); assay: In vitro blocking of hERG K+ channels (QPatch automated patch-clamp, CHO-K1 cells); format: cell-based; conditions: pH 7.4, at 10 μM, CHOhERG cells, 4 minutes of stimulation, average block on two cells
Experimental: hERG K^+ channels have been cloned from human heart and recombinant channels are stably expressed in CHO-K1 cells (CHOhERG). These cells have been purchased from bSys GmbH (CH-4052 Basel, Switzerland) and are grown in 150 mL culture flasks at 37° C. in 5% CO2. When the cells are ˜100% confluent, they are detached with 0.25% trypsin-EDTA solution and placed in the cell preparation unit of a QPatch automated patch-clamp robot (Sophion Bioscience A/S, 2750 Ballerup, Denmark). Currents through the hERG K^+ channels (IKhERG) are elicited using the following buffer solutions and voltage protocol: • extracellular solution (in mM): [NaCl]=150; [KCl]=4; [CaCl2]=1.2; [MgCl2]=1; [HEPES]=10; pH adjusted to 7.4 with NaOH; • intracellular solution (in mM): [KCl]=140; [NaCl]=10; [MgCl2]=1; [HEPES]=10; [EGTA]=5; [Mg-ATP]=5; […] After the cells have stabilized for a few minutes and the currents are steady, the amplitude of IKhERG is recorded under control conditions. Thereafter, the QPatch robot applies the test compound to the cell at the test concentration and, after 4 minutes of stimulation, the amplitude of IKhERG is recorded under test conditions. The ratio of the two amplitudes is used to define a fractional block and the average block on two cells is used to provide the effect of a given concentration (e.g. 10 μM). If, for a given test compound, a sufficient number of concentrations were tested, an apparent IC50 for inhibition of IKhERG is calculated.

[3] = comparison table of compounds of formula ICOMP

hERG K+ channel, sequence (Q12809 whole entry): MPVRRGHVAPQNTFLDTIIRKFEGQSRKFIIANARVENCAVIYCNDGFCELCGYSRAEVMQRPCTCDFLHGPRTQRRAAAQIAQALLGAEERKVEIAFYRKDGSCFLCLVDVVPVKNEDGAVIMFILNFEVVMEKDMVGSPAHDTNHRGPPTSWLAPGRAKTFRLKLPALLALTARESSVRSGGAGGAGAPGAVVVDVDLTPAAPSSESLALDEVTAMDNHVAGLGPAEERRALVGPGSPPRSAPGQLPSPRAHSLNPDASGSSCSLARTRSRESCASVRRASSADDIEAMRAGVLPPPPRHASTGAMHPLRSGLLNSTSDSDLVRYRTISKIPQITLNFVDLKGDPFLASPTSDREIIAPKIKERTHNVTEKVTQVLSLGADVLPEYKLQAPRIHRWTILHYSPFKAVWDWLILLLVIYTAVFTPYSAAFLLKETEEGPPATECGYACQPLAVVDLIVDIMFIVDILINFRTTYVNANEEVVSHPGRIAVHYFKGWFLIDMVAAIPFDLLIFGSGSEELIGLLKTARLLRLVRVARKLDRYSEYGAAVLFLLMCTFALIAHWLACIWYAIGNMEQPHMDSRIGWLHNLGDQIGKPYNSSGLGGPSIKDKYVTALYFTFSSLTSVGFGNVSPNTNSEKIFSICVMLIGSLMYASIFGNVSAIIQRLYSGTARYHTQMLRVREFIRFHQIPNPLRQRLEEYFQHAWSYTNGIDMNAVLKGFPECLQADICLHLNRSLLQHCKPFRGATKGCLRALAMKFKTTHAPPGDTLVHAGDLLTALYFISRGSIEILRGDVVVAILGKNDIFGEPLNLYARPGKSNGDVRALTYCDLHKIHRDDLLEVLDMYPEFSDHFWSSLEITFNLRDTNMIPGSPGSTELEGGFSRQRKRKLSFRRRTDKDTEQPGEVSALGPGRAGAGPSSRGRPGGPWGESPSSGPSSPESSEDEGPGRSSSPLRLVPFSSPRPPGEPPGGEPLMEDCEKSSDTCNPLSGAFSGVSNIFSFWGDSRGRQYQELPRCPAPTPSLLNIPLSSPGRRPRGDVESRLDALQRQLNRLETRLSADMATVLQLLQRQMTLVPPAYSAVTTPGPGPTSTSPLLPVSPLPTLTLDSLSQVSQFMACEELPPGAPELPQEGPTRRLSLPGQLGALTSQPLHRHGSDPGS

Compound `COc1ccc2ncc(F)c(C[C@H](O)[C@@H]3CC[C@@H](NCc4cc5c(cn4)OCS5)CO3)c2n1` [Example 8, (1S)-2-(3-fluoro-6-methoxy-[1,5]naphthyridin-4-yl)-1-{(2S,5R)-5-[(3-oxa-1-thia-5-aza-indan-6-ylmethyl)-amino]tetrahydro-pyran-2-yl}-ethanol] has an MIC ([1]; microdilution) of no more than 0.031 µg/mL.
`COc1ccc2nccc(C[C@H](O)[C@@H]3CC[C@@H](NCc4cc5c(nn4)OCCO5)CO3)c2n1` [Example 2, (1S)-1-{(2S,5R)-5-[(6,7-dihydro-[1,4]dioxino[2,3-c]pyridazin-3-ylmethyl)-amino]-tetrahydro-pyran-2-yl}-2-(6-methoxy-[1,5]naphthyridin-4-yl)-ethanol] gave an MIC ([1]; microdilution) of 0.25 µg/mL (≈ 0.551 µM).
Compound `COc1ccc2ccc(F)c(C[C@H](O)[C@@H]3CC[C@@H](NCc4cc5c(cn4)OCCS5)CO3)c2n1` [Example 7, (1S)-1-{(2S,5R)-5-[(2,3-dihydro-4-oxa-1-thia-6-aza-naphthalen-7-ylmethyl)-amino]-tetrahydro-pyran-2-yl}-2-(7-fluoro-2-methoxy-quinolin-8-yl)-ethanol] has an MIC ([1]; microdilution) of no more than 0.031 µg/mL.
In the case of “(1S)-1-((2S,5R)-5-(((2,3-dihydro-[1,4]dioxino-2,2,3,3-d4-[2,3-c]pyridin-7-yl)methyl)amino)tetrahydro-2H-pyran-2-yl)-2-(3-fluoro-6-methoxy-1,5-naphthyridin-4-yl)ethanol [Example 17]”, the “MIC for S. aureus A798” value ([1]; microdilution) is reported as “≦0.031 mg/l”.
In the case of `COc1ccc2ncc(F)c(CCC3CCC(NCc4cc5c(cn4)OCCO5)CO3)c2n1` (centres unmarked) [Reference Example No. 1, reference compound], the MIC [1, 3] is reported as no more than 0.031 µg/mL and the inhibition at 4 min, 10 µM [2] is reported as 77%.
`COc1ccc2ncc(F)c(C[C@H](O)[C@@H]3CC[C@@H](NCc4cc5c(nn4)OCCO5)CO3)c2n1` [Example 4, (1S)-1-{(2S,5R)-5-[(6,7-dihydro-[1,4]dioxino[2,3-c]pyridazin-3-ylmethyl)-amino]-tetrahydro-pyran-2-yl}-2-(3-fluoro-6-methoxy-[1,5]naphthyridin-4-yl)-ethanol] was tested, and the MIC ([1]; microdilution) was no more than 0.031 µg/mL, the “MIC for S. aureus A798” value [1, 3] was “≦0.031 mg/l” and the inhibition at 4 min, 10 µM [2] was 5%.
In the case of “(S)-((1S,5R)-5-(((2,3-dihydro-[1,4]oxathiino[2,3-c]pyridin-7-yl)methyl)amino)tetrahydro-2H-pyran-2-yl)-2-(3-fluoro-6-methoxy-1,5-naphthyridin-4-yl)ethanol-1-d1 [Example 22]”, the “MIC for S. aureus A798” value ([1]; microdilution) is reported as “≦0.031 mg/l”.
`COc1cnc2ccc(F)c(C[C@H](O)[C@@H]3CC[C@@H](NCc4cc5c(cn4)OCCO5)CO3)c2n1` [Example 12, (1S)-1-{(2S,5R)-5-[(2,3-dihydro-[1,4]dioxino[2,3-c]pyridin-7-ylmethyl)-amino]-tetrahydro-pyran-2-yl}-2-(6-fluoro-3-methoxy-quinoxalin-5-yl)-ethanol] showed an MIC ([1]; microdilution) of no more than 0.031 µg/mL.
Compound `[2H]C(N[C@@H]1CC[C@@H]([C@@H](O)Cc2c(F)cnc3ccc(OC)nc23)OC1)c1cc2c(cn1)OCCO2` (stereo partly drawn) [Example 16, (1S)-1-((2S,5R)-5-(((2,3-dihydro-[1,4]dioxino[2,3-c]pyridin-7-yl)methyl-d1)amino)tetrahydro-2H-pyran-2-yl)-2-(3-fluoro-6-methoxy-1,5-naphthyridin-4-yl)ethanol] has an MIC ([1]; microdilution) of no more than 0.031 µg/mL.
Work on `[2H]C(c1c(F)cnc2ccc(OC)nc12)[C@H](O)[C@@H]1CC[C@@H](NCc2cc3c(cn2)OCCO3)CO1` (stereo partly drawn) [Example 20, (1S)-1-((2S,5R)-5-(((2,3-dihydro-[1,4]dioxino-[2,3-c]pyridin-7-yl)methyl)amino)tetrahydro-2H-pyran-2-yl)-2-(3-fluoro-6-methoxy-1,5-naphthyridin-4-yl)ethanol-2-d1] yielded an MIC ([1]; microdilution) of no more than 0.031 µg/mL.
In the case of `COc1cnc2ccc(F)c(C[C@H](O)[C@@H]3CC[C@@H](NCc4cc5c(cn4)OCCS5)CO3)c2n1` [Example 14, (1S)-1-{(2S,5R)-5-[(2,3-dihydro-4-oxa-1-thia-6-aza-naphthalen-7-ylmethyl)-amino]-tetrahydro-pyran-2-yl}-2-(6-fluoro-3-methoxy-quinoxalin-5-yl)-ethanol], the MIC ([1]; microdilution) is reported as no more than 0.031 µg/mL.
In the case of `[2H]C([2H])(N[C@@H]1CC[C@@H]([C@@H](O)Cc2c(F)cnc3ccc(OC)nc23)OC1)c1cc2c(cn1)OCCO2` [Example 24, (1S)-1-((2S,5R)-5-(((2,3-dihydro-[1,4]dioxino [2,3-c]pyridin-7-yl)methyl-d2)amino)tetrahydro-2H-pyran-2-yl)-2-(3-fluoro-6-methoxy-1,5-naphthyridin-4-yl)ethanol], the MIC ([1]; microdilution) is reported as no more than 0.031 µg/mL.
In the case of `[2H][C@](O)(Cc1c(F)cnc2ccc(OC)nc12)[C@@H]1CC[C@@H](NCc2cc3c(cn2)OCCO3)CO1` (single isomer, unassigned) [Example 18], the MIC ([1]; microdilution) is reported as no more than 0.031 µg/mL.
For `COc1ccc2ccc(F)c(C[C@H](O)[C@@H]3CC[C@@H](NCc4cc5c(cn4)OCS5)CO3)c2n1` [Example 9, (1S)-2-(7-fluoro-2-methoxy-quinolin-8-yl)-1-{(2S,5R)-5-[(3-oxa-1-thia-5-aza-indan-6-ylmethyl)-amino]-tetrahydro-pyran-2-yl}-ethanol], the MIC ([1]; microdilution) was no more than 0.031 µg/mL.
For `COc1cnc2ccc(F)c(C[C@H](O)[C@@H]3CC[C@@H](NCc4cc5c(nn4)OCCO5)CO3)c2n1` [Example 13, (1S)-1-{(2S,5R)-5-[(6,7-dihydro-[1,4]dioxino[2,3-c]pyridazin-3-ylmethyl)-amino]tetrahydro-pyran-2-yl}-2-(6-fluoro-3-methoxy-quinoxalin-5-yl)-ethanol], the MIC ([1]; microdilution) was no more than 0.031 µg/mL.
In the case of `COc1ccc2ncc(F)c(C[C@H](O)[C@@H]3CC[C@@H](NCc4cc5c(cn4)OCCS5)CO3)c2n1` [Example 6, (1S)-1-{(2S,5R)-5-[(2,3-dihydro-4-oxa-1-thia-6-aza-naphthalen-7-ylmethyl)-amino]-tetrahydro-pyran-2-yl}-2-(3-fluoro-6-methoxy-[1,5]naphthyridin-4-yl)-ethanol], the MIC ([1]; microdilution) is reported as no more than 0.031 µg/mL.
For `COc1ccc2nccc(C[C@H](O)[C@@H]3CC[C@@H](NCc4cc5c(cn4)OCCO5)CO3)c2n1` [Example 1, (1S)-1-{(2S,5R)-5-[(2,3-dihydro-[1,4]dioxino[2,3-c]pyridin-7-ylmethyl)-amino]tetrahydro-pyran-2-yl}-2-(6-methoxy-[1,5]naphthyridin-4-yl)-ethanol], the MIC ([1]; microdilution) was no more than 0.031 µg/mL, the “MIC for S. aureus A798” value [1, 3] was “≦0.031 mg/l” and the inhibition at 4 min, 10 µM [2] was 26%.
`COc1ccc2ncc(F)c(C[C@H](O)[C@@H]3CC[C@@H](NCc4cc5c(cn4)OCCC5)CO3)c2n1` [Example 10, (1S)-1-{(2S,5R)-5-[(3,4-dihydro-2H-pyrano[2,3-c]pyridin-6-ylmethyl)-amino]-tetrahydro-pyran-2-yl}-2-(3-fluoro-6-methoxy-[1,5]naphthyridin-4-yl)-ethanol] gave an MIC ([1]; microdilution) of no more than 0.031 µg/mL.
`COc1ccc2ccc(F)c(C[C@H](O)[C@@H]3CC[C@@H](NCc4cc5c(cn4)OCCO5)CO3)c2n1` [Example 5, (1S)-1-{(2S,5R)-5-[(2,3-dihydro-[1,4]dioxino[2,3-c]pyridin-7-ylmethyl)-amino]-tetrahydro-pyran-2-yl}-2-(7-fluoro-2-methoxy-quinolin-8-yl)-ethanol] was tested, and the MIC ([1]; microdilution) was no more than 0.031 µg/mL.
Work on `COc1cnc2ccc(F)c(C[C@H](O)[C@@H]3CC[C@@H](NCc4cc5c(nn4)OCCS5)CO3)c2n1` [Example 15, (1S)-1-{(2S,5R)-5-[(6,7-dihydro-8-oxa-5-thia-1,2-diaza-naphthalen-3-ylmethyl)-amino]-tetrahydro-pyran-2-yl}-2-(6-fluoro-3-methoxy-quinoxalin-5-yl)-ethanol] yielded an MIC ([1]; microdilution) of no more than 0.031 µg/mL.
In the case of `[2H]C(N[C@@H]1CC[C@@H]([C@@H](O)Cc2c(F)cnc3ccc(OC)nc23)OC1)c1cc2c(cn1)OCCS2` (stereo partly drawn) [Example 19, (S)-1-((2S,5R)-5-(((2,3-dihydro-[1,4]oxathiino[2,3-c]pyridin-7-yl)methyl-d1)amino)tetrahydro-2H-pyran-2-yl)-2-(3-fluoro-6-methoxy-1,5-naphthyridin-4-yl)ethanol], the MIC ([1]; microdilution) is reported as no more than 0.031 µg/mL.
Work on `[2H]C(N[C@@H]1CC[C@@H]([C@@H](O)Cc2c(F)cnc3ccc(OC)nc23)OC1)c1cc2c(nn1)OCCS2` (stereo partly drawn) [Example 23, (S)-1-{(2S,5R)-5-[(6,7-dihydro-8-oxa-5-thia-1,2-diaza-naphthalen-3-ylmethyl-d1)-amino]-tetrahydro-pyran-2-yl}-2-(3-fluoro-6-methoxy-[1,5]naphthyridin-4-yl)-ethanol] yielded an MIC ([1]; microdilution) of no more than 0.031 µg/mL.
Work on `[2H]C(c1c(F)cnc2ccc(OC)nc12)[C@H](O)[C@@H]1CC[C@@H](NCc2cc3c(cn2)OCCS3)CO1` (stereo partly drawn) [Example 21, (S)-1-((2S,5R)-5-(((2,3-dihydro-[1,4]oxathiino[2,3-c]pyridin-7-yl)methyl)amino)tetrahydro-2H-pyran-2-yl)-2-(3-fluoro-6-methoxy-1,5-naphthyridin-4-yl)ethanol-2-d1] yielded an MIC ([1]; microdilution) of no more than 0.031 µg/mL.
With `COc1ccc2ncc(F)c(C[C@H](O)[C@@H]3CC[C@@H](NCc4cc5c(nn4)OCCS5)CO3)c2n1` [Example 11, (1S)-1-{(2S,5R)-5-[(6,7-dihydro-8-oxa-5-thia-1,2-diaza-naphthalen-3-ylmethyl)-amino]-tetrahydro-pyran-2-yl}-2-(3-fluoro-6-methoxy-[1,5]naphthyridin-4-yl)-ethanol] the MIC ([1]; microdilution) was no more than 0.031 µg/mL.
